Data reported in ChEMBL document CHEMBL1201862, “PubChem BioAssay data set” (2004).
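Interpolation was linear, between the two tested concentrations surrounding the appropriate level; five concentrations were tested over 48 hours in 96-well plates. At the GI50, growth is halved.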 The source made the active and inactive calls. Rule as the data show it: active = GI50 up to about 1.1 µM and inactive = higher.

Assays:
Assay in all cases: NCI-60 cell line screen, 48 h
786-0 = tested on: 786-0
A549 = tested on: A549
ACHN = tested on: ACHN
CAKI-1 = tested on: CAKI-1
CCRF-CEM = tested on: CCRF-CEM
COLO 205 = tested on: COLO 205
DMS-114 = tested on: DMS-114
DMS-273 = tested on: DMS-273
EKVX = tested on: EKVX
HCC 2998 = tested on: HCC 2998
HCT-116 = tested on: HCT-116
HCT-15 = tested on: HCT-15
HOP-18 = tested on: HOP-18
IGROV-1 = tested on: IGROV-1
K562 = tested on: K562
KM-20L2 = tested on: KM-20L2
KM12 = tested on: KM12
LOX IMVI = tested on: LOX IMVI
LXFL 529 = tested on: LXFL 529
M14 = tested on: M14
M19-MEL = tested on: M19-MEL
MOLT-4 = tested on: MOLT-4
Malme-3M = tested on: Malme-3M
NCI-H226 = tested on: NCI-H226
NCI-H23 = tested on: NCI-H23
NCI-H522 = tested on: NCI-H522
OVCAR-4 = tested on: OVCAR-4
OVCAR-5 = tested on: OVCAR-5
OVCAR-8 = tested on: OVCAR-8
RPMI-8226 = tested on: RPMI-8226
RXF 393 = tested on: RXF 393
RXF 631 = tested on: RXF 631
SF-268 = tested on: SF-268
SF-295 = tested on: SF-295
SF-539 = tested on: SF-539
SK-MEL-28 = tested on: SK-MEL-28
SK-MEL-2 = tested on: SK-MEL-2
SK-MEL-5 = tested on: SK-MEL-5
SK-OV-3 = tested on: SK-OV-3
SN12C = tested on: SN12C
SNB-19 = tested on: SNB-19
SNB-78 = tested on: SNB-78
SR = tested on: SR
SW-620 = tested on: SW-620
TK-10 = tested on: TK-10
U-251 = tested on: U-251
UACC-257 = tested on: UACC-257
UACC-62 = tested on: UACC-62
UO-31 = tested on: UO-31
XF498 = tested on: XF498
A498 = tested on: A498
DLD-1 = tested on: DLD-1
HL-60 = tested on: HL-60
HOP-62 = tested on: HOP-62
HOP-92 = tested on: HOP-92
HT-29 = tested on: HT-29
NCI-H460 = tested on: NCI-H460
OVCAR-3 = tested on: OVCAR-3
SNB-75 = tested on: SNB-75

COC(=O)C(=O)C(C(=O)C(=O)Nc1cc(Cl)c(Cl)cc1Cl)c1nc2ccc([N+](=O)[O-])cc2nc1O (stereo not given)
GI50 (786-0): > 100 µM (inactive)
GI50 (A549): > 100 µM (inactive)
GI50 (ACHN): > 100 µM (inactive)
GI50 (CAKI-1): 60.8 µM (inactive)
GI50 (CCRF-CEM): > 100 µM (inactive)
GI50 (COLO 205): > 100 µM (inactive)
GI50 (DMS-114): > 100 µM (inactive)
GI50 (DMS-273): > 100 µM (inactive)
GI50 (EKVX): 48.5 µM (inactive)
GI50 (HCC 2998): > 100 µM (inactive)
GI50 (HCT-116): > 100 µM (inactive)
GI50 (HCT-15): > 100 µM
GI50 (HOP-18): 8.81 µM (inactive)
GI50 (IGROV-1): > 100 µM (inactive)
GI50 (K562): > 100 µM (inactive)
GI50 (KM-20L2): > 100 µM (inactive)
GI50 (KM12): > 100 µM (inactive)
GI50 (LOX IMVI): > 100 µM (inactive)
GI50 (LXFL 529): > 100 µM (inactive)
GI50 (M14): > 100 µM (inactive)
GI50 (M19-MEL): > 100 µM (inactive)
GI50 (MOLT-4): > 100 µM (inactive)
GI50 (Malme-3M): > 100 µM (inactive)
GI50 (NCI-H226): > 100 µM (inactive)
GI50 (NCI-H23): > 100 µM (inactive)
GI50 (NCI-H522): 46.9 µM (inactive)
GI50 (OVCAR-4): > 100 µM (inactive)
GI50 (OVCAR-5): > 100 µM (inactive)
GI50 (OVCAR-8): > 100 µM (inactive)
GI50 (RPMI-8226): > 100 µM (inactive)
GI50 (RXF 393): > 100 µM (inactive)
GI50 (RXF 631): > 100 µM (inactive)
GI50 (SF-268): > 100 µM (inactive)
GI50 (SF-295): > 100 µM (inactive)
GI50 (SF-539): > 100 µM (inactive)
GI50 (SK-MEL-28): > 100 µM (inactive)
GI50 (SK-MEL-2): > 100 µM (inactive)
GI50 (SK-MEL-5): > 100 µM (inactive)
GI50 (SK-OV-3): > 100 µM (inactive)
GI50 (SN12C): > 100 µM (inactive)
GI50 (SNB-19): > 100 µM (inactive)
GI50 (SNB-78): > 100 µM (inactive)
GI50 (SR): > 100 µM (inactive)
GI50 (SW-620): > 100 µM (inactive)
GI50 (TK-10): > 100 µM (inactive)
GI50 (U-251): > 100 µM (inactive)
GI50 (UACC-257): > 100 µM (inactive)
GI50 (UACC-62): > 100 µM (inactive)
GI50 (UO-31): 51.4 µM (inactive)
GI50 (XF498): 7.1 µM (inactive)

CCCCCCCCCCCCCP(=O)(O)O
GI50 (786-0): > 100 µM (inactive)
GI50 (A498): > 100 µM (inactive)
GI50 (A549): > 100 µM (inactive)
GI50 (ACHN): > 100 µM (inactive)
GI50 (CCRF-CEM): > 100 µM (inactive)
GI50 (COLO 205): > 100 µM (inactive)
GI50 (DLD-1): > 100 µM (inactive)
GI50 (DMS-114): > 100 µM (inactive)
GI50 (DMS-273): 50.9 µM (inactive)
GI50 (EKVX): > 100 µM (inactive)
GI50 (HCC 2998): > 100 µM (inactive)
GI50 (HCT-116): > 100 µM (inactive)
GI50 (HCT-15): > 100 µM
GI50 (HL-60): > 100 µM (inactive)
GI50 (HOP-18): > 100 µM (inactive)
GI50 (HOP-62): > 100 µM (inactive)
GI50 (HOP-92): > 100 µM (inactive)
GI50 (HT-29): > 100 µM (inactive)
GI50 (IGROV-1): > 100 µM (inactive)
GI50 (KM-20L2): > 100 µM (inactive)
GI50 (KM12): > 100 µM (inactive)
GI50 (LOX IMVI): > 100 µM (inactive)
GI50 (LXFL 529): > 100 µM (inactive)
GI50 (M14): > 100 µM (inactive)
GI50 (M19-MEL): > 100 µM (inactive)
GI50 (Malme-3M): > 100 µM (inactive)
GI50 (NCI-H226): > 100 µM (inactive)
GI50 (NCI-H23): > 100 µM (inactive)
GI50 (NCI-H460): > 100 µM (inactive)
GI50 (NCI-H522): > 100 µM (inactive)
GI50 (OVCAR-3): > 100 µM (inactive)
GI50 (OVCAR-4): > 100 µM (inactive)
GI50 (OVCAR-5): > 100 µM (inactive)
GI50 (OVCAR-8): > 100 µM (inactive)
GI50 (RXF 393): 35.5 µM (inactive)
GI50 (RXF 631): > 100 µM (inactive)
GI50 (SF-268): > 100 µM (inactive)
GI50 (SF-295): > 100 µM (inactive)
GI50 (SF-539): > 100 µM (inactive)
GI50 (SK-MEL-28): > 100 µM (inactive)
GI50 (SK-MEL-2): > 100 µM (inactive)
GI50 (SK-MEL-5): > 100 µM (inactive)
GI50 (SK-OV-3): > 100 µM (inactive)
GI50 (SN12C): > 100 µM (inactive)
GI50 (SNB-19): 67.1 µM (inactive)
GI50 (SNB-75): 23.2 µM (inactive)
GI50 (SNB-78): > 100 µM (inactive)
GI50 (SW-620): > 100 µM (inactive)
GI50 (TK-10): > 100 µM (inactive)
GI50 (U-251): 45.2 µM (inactive)
GI50 (UACC-257): > 100 µM (inactive)
GI50 (UACC-62): > 100 µM (inactive)
GI50 (UO-31): > 100 µM (inactive)
GI50 (XF498): > 100 µM (inactive)

O=C(CC1(O)C(=O)Nc2c(Cl)cc(Cl)cc21)c1ccc2ccccc2c1 (stereo not given)
GI50 (786-0): 10.2 µM (inactive)
GI50 (A498): 11.3 µM (inactive)
GI50 (A549): 5.2 µM (inactive)
GI50 (ACHN): 14.4 µM (inactive)
GI50 (CAKI-1): 5.7 µM (inactive)
GI50 (CCRF-CEM): 10.2 µM (inactive)
GI50 (COLO 205): 8.79 µM (inactive)
GI50 (DLD-1): 11.6 µM (inactive)
GI50 (DMS-114): 4.69 µM (inactive)
GI50 (DMS-273): 3.72 µM (inactive)
GI50 (EKVX): 9.77 µM (inactive)
GI50 (HCC 2998): > 10 µM (inactive)
GI50 (HCT-15): 3.62 µM
GI50 (HL-60): 3.18 µM (inactive)
GI50 (HOP-18): 13.3 µM (inactive)
GI50 (HOP-62): 7.83 µM (inactive)
GI50 (HOP-92): 21.4 µM (inactive)
GI50 (HT-29): 5.25 µM (inactive)
GI50 (IGROV-1): 10.9 µM (inactive)
GI50 (K562): 3.18 µM (inactive)
GI50 (KM-20L2): 3.56 µM (inactive)
GI50 (KM12): 5.92 µM (inactive)
GI50 (LOX IMVI): 10.5 µM (inactive)
GI50 (LXFL 529): 9.16 µM (inactive)
GI50 (M14): 4.79 µM (inactive)
GI50 (M19-MEL): 4.49 µM (inactive)
GI50 (MOLT-4): 6.24 µM (inactive)
GI50 (Malme-3M): 6.53 µM (inactive)
GI50 (NCI-H23): 7.33 µM (inactive)
GI50 (NCI-H460): 4.7 µM (inactive)
GI50 (NCI-H522): 2.92 µM (inactive)
GI50 (OVCAR-3): 6.18 µM (inactive)
GI50 (OVCAR-4): 13.6 µM (inactive)
GI50 (OVCAR-5): 16.6 µM (inactive)
GI50 (OVCAR-8): 10.6 µM (inactive)
GI50 (RPMI-8226): 5.22 µM (inactive)
GI50 (RXF 393): 8.17 µM (inactive)
GI50 (RXF 631): 7.08 µM (inactive)
GI50 (SF-268): 12.2 µM (inactive)
GI50 (SF-295): 7.93 µM (inactive)
GI50 (SF-539): 8.17 µM (inactive)
GI50 (SK-MEL-28): 10.7 µM (inactive)
GI50 (SK-MEL-2): 2.48 µM (inactive)
GI50 (SK-MEL-5): 6.11 µM (inactive)
GI50 (SK-OV-3): 10.4 µM (inactive)
GI50 (SN12C): 10.4 µM (inactive)
GI50 (SNB-19): 11.4 µM (inactive)
GI50 (SNB-75): 3.99 µM (inactive)
GI50 (SNB-78): 16.8 µM (inactive)
GI50 (SW-620): 3.66 µM (inactive)
GI50 (TK-10): 14.1 µM (inactive)
GI50 (U-251): 6.92 µM (inactive)
GI50 (UACC-257): 12.6 µM (inactive)
GI50 (UACC-62): 3.55 µM (inactive)
GI50 (UO-31): 11.5 µM (inactive)
GI50 (XF498): 11.6 µM (inactive)
